ChEMBL document CHEMBL5465560, “Selectivity Literature for EUbOPEN Chemogenomic Library” (2024)
One block for each compound: values may come before it.

Tests used:
[1] = molecular target: T1, Serine/threonine-protein kinase DCLK1 (Homo sapiens) (UniProt O15075); conditions: at 10 µM
T1 sequence (whole entry): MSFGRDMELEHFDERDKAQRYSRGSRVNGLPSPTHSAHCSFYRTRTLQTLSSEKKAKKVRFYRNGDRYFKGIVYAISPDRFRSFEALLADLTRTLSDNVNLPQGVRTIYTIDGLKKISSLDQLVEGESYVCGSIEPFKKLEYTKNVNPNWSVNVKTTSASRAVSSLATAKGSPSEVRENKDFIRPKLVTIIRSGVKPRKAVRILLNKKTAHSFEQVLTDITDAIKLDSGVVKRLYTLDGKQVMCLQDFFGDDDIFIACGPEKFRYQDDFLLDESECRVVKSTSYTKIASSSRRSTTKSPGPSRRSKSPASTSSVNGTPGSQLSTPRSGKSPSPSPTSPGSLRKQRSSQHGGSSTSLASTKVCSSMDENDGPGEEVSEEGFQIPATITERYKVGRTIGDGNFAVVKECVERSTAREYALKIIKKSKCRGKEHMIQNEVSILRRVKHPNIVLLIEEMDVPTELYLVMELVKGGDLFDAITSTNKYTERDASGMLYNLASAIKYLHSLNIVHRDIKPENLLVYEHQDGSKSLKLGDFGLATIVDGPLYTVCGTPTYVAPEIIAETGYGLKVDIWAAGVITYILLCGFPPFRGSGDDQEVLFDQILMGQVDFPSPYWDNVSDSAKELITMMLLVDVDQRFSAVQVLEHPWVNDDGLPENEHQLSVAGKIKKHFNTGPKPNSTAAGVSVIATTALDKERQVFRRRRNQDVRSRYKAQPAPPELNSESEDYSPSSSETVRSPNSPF

[2] = molecular target: T2, Mitogen-activated protein kinase kinase kinase kinase 2 (Homo sapiens) (UniProt Q12851); assay: Selectivity interaction (KinomeScan (DiscoverX)) EUB0000655a MAP4K2; conditions: at 10 µM
T2 sequence (whole entry): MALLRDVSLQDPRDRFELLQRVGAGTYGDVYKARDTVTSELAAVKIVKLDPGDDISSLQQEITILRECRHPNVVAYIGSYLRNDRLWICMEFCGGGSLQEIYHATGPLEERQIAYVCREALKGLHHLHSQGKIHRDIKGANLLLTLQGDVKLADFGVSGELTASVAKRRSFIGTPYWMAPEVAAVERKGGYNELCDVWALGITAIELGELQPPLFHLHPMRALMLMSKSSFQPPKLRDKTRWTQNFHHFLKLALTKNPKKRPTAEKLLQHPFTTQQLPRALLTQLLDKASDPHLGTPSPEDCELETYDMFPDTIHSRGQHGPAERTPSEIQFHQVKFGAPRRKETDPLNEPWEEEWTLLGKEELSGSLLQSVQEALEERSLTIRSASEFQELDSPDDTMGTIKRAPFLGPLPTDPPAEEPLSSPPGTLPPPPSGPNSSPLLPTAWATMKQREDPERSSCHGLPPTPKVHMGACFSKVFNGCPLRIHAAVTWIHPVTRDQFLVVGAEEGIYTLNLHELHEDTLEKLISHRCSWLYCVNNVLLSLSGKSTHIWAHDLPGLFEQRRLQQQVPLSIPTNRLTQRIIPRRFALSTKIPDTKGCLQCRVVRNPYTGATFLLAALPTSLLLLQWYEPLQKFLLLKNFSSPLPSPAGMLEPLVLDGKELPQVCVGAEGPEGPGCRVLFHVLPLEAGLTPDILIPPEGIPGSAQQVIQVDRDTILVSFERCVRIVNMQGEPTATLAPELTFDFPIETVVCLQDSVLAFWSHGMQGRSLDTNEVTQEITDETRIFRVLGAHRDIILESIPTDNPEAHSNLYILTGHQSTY

[3] = tested on: Tyrosine-protein kinase ABL1 (Homo sapiens), P00519 [F317L]; assay: Selectivity interaction (KinomeScan (DiscoverX)) EUB0001079a ABL1; conditions: at 1 µM
Sequence of Tyrosine-protein kinase ABL1 (Homo sapiens), P00519 [F317L] (P00519 whole entry F317L): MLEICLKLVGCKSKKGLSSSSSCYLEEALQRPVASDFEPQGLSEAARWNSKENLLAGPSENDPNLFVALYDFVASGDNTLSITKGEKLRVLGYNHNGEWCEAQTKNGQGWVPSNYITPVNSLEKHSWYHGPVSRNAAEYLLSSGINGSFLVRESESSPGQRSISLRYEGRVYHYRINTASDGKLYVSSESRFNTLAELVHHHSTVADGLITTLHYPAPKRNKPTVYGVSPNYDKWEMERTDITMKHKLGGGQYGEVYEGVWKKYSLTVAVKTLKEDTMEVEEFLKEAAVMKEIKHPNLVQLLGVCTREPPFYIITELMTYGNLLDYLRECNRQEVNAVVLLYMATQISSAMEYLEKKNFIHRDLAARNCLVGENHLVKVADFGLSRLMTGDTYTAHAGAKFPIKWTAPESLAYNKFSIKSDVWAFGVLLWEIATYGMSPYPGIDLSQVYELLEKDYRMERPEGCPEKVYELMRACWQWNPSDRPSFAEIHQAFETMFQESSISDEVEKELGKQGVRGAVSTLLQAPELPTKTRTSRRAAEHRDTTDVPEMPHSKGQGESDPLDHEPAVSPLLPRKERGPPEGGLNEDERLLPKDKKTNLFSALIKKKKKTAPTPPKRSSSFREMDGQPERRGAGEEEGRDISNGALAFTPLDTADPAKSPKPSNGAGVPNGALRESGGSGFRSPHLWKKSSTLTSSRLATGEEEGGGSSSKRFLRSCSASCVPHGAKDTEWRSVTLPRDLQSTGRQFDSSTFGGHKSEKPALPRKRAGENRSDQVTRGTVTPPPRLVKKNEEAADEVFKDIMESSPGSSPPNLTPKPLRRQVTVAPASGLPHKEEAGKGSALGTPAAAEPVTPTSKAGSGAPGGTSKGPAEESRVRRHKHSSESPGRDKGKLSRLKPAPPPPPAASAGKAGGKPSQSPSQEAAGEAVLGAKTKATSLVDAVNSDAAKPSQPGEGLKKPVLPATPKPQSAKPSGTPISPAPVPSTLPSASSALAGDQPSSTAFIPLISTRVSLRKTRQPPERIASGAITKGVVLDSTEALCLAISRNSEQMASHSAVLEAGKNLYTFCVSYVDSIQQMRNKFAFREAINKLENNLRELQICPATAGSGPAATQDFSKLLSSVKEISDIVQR

Misshapen-like kinase 1 = Misshapen-like kinase 1 (Homo sapiens, UniProt Q8N4C8); assay: Selectivity interaction (KinomeScan (DiscoverX)) EUB0000045b MINK1
Sequence of Misshapen-like kinase 1 (Q8N4C8 whole entry, looked up): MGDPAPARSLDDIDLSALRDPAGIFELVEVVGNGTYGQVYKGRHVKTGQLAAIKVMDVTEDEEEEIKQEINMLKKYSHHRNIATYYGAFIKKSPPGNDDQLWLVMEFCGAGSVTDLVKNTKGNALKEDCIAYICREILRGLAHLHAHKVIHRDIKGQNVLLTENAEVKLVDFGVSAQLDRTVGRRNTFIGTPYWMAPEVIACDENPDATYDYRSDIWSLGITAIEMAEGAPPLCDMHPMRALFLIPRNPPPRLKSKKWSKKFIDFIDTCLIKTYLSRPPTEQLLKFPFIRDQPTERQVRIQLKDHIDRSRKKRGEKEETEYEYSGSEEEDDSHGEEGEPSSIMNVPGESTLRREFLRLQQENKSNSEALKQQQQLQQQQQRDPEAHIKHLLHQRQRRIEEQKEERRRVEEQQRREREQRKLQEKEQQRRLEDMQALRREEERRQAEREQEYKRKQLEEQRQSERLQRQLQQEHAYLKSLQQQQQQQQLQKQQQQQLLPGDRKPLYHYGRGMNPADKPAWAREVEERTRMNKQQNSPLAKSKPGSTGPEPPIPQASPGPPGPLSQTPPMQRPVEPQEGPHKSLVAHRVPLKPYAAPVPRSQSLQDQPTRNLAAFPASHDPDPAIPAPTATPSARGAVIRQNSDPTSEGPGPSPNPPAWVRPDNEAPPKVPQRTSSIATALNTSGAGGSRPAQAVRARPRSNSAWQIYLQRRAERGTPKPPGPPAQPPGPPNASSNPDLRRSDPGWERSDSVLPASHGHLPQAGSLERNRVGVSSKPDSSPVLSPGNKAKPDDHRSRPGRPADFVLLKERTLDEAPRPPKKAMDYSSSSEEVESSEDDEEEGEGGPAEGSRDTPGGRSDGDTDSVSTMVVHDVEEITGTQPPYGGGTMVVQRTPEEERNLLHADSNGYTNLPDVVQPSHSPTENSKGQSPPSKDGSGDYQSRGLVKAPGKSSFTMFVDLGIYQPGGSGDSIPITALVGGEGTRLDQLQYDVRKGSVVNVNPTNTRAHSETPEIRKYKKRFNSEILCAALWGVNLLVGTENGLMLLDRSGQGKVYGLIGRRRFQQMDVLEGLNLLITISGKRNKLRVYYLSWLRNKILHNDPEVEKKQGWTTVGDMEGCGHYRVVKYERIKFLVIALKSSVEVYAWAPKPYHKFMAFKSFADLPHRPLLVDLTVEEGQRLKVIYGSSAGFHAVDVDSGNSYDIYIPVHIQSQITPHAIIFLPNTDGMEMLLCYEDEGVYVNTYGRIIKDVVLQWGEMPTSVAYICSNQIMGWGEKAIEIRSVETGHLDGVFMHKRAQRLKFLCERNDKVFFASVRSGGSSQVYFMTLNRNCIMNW

[4] = molecular target: T3, Phosphatidylinositol 5-phosphate 4-kinase type-2 gamma (Homo sapiens) (UniProt Q8TBX8); assay: Selectivity interaction (KinomeScan (DiscoverX)) EUB0000595a PIP4K2C; conditions: at 10 µM
T3 sequence (whole entry): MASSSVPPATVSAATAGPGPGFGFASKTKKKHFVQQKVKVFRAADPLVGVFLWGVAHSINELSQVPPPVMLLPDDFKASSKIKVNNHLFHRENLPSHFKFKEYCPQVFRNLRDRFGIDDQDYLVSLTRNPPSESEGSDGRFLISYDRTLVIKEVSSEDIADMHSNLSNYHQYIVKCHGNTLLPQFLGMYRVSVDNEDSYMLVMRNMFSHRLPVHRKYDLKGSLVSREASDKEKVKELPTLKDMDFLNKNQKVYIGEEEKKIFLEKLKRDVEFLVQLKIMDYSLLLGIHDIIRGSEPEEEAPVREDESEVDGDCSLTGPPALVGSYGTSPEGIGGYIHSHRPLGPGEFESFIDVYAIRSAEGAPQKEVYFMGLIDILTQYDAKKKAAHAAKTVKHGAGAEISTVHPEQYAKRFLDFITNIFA

[5] = molecular target: Tyrosine-protein kinase Fyn (Homo sapiens) (UniProt P06241); assay: Selectivity interaction (ActivX KiNativ screen (kinase selectivity in THP-1 cell lysates)) EUB0000639a FYN; assay type: subcellular; conditions: lysate
Sequence of Tyrosine-protein kinase Fyn (Homo sapiens) (P06241 2-537 limits assumed): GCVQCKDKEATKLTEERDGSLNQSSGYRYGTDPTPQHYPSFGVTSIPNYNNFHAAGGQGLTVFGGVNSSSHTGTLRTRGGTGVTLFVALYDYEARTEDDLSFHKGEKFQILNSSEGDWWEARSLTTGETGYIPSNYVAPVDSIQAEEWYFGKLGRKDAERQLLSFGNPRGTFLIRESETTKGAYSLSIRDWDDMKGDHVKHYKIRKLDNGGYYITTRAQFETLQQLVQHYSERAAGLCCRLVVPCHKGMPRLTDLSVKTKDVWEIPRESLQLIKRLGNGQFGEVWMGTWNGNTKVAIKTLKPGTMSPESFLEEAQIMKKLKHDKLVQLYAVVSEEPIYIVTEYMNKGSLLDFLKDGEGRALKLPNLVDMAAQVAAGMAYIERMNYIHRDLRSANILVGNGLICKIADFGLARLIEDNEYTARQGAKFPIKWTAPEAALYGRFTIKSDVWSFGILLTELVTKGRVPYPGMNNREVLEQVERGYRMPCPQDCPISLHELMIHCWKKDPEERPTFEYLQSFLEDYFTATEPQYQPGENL

[6] = molecular target: Serine/threonine-protein kinase Nek6 (Homo sapiens) (UniProt Q9HC98); assay: Selectivity interaction (Kinase panel (Invitrogen)) EUB0000639a NEK6; conditions: at 200 nM
Sequence of Serine/threonine-protein kinase Nek6 (Homo sapiens) (Q9HC98 whole entry): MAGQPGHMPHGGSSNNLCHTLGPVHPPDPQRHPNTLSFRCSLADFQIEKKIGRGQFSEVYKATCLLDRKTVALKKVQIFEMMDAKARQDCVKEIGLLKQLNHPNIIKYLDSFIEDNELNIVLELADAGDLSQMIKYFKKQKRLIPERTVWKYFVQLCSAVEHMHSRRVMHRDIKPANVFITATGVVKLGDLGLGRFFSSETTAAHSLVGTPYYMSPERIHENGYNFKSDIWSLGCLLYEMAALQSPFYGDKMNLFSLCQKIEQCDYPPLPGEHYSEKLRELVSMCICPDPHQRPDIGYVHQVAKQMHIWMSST

[7] = molecular target: T4, Activin receptor type-1 (Homo sapiens) (UniProt Q04771); assay: Selectivity interaction (KinomeScan (DiscoverX)) EUB0000092b ACVR1; conditions: at 10 µM
T4 sequence (whole entry): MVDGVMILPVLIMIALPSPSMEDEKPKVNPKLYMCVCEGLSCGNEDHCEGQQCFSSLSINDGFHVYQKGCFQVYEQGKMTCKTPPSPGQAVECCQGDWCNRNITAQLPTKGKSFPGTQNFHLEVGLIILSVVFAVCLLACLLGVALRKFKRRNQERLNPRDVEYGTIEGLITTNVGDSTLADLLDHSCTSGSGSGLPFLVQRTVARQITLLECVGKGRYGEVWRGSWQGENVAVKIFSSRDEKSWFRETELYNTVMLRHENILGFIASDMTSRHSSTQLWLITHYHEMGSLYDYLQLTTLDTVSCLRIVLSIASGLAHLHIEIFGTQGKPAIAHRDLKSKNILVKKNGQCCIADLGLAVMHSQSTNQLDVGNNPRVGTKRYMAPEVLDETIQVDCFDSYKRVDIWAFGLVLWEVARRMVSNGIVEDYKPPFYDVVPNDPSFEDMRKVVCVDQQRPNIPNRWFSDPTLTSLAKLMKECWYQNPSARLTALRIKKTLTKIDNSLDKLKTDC

% of control [1]: 100%
Structure (SMILES): CCN(CC)CCCCNc1ncc2cc(-c3cc(OC)cc(OC)c3)c(NC(=O)NC(C)(C)C)nc2n1

Structure (SMILES): CN(C)CCOc1ccc(-c2nc(-c3ccncc3)c(-c3ccc4c(c3)CC/C4=N\O)[nH]2)cc1
% of control [2]: 74%

Structure (SMILES): Nc1cnc(N2CCc3cc(S(=O)(=O)Nc4c(F)cc(Cl)cc4F)cc(N4CCCC4=O)c32)nc1 [TP-020n]
% of control [3]: 78%

Structure (SMILES): C=CC(=O)Nc1cc(-n2c(=O)ccc3cnc4ccc(-c5ccc(NS(C)(=O)=O)cc5)cc4c32)ccc1C
% of control (Misshapen-like kinase 1; at 1 µM): 100%
% of control (Misshapen-like kinase 1; at 10 µM): 73%

Structure (SMILES): COCC(=O)NC/C=C/c1ccc2ncnc(Nc3ccc(Oc4ccc(C)nc4)c(C)c3)c2c1 [CP-724714]
% of control [4]: 84%

% of inhibition ([5]; at 0.01 µM): -12.7%
% of inhibition ([5]; at 0.04 µM): -16.1%
% of inhibition ([5]; at 0.2 µM): -5.4%
% of inhibition ([5]; at 1 µM): -3.3%
% of inhibition ([5]; at 5 µM): -18.6%
% of inhibition [6]: 6.81%
Structure (SMILES): CC[C@@H]1[C@H](F)C(=O)N[C@@H]1COc1nccc2cc(C(N)=O)c(OC)cc12 [ZIMLOVISERTIB]

Structure (SMILES): CCC(=O)N1CCN(c2ccc(-n3c(=O)ccc4cnc5ccc(-c6cnc7ccccc7c6)cc5c43)cc2C(F)(F)F)CC1
% of control [7]: 28%
